Assay results taken from patent publication US20260125388A1 (priority 2022, published 2026).
≈ marks a conversion by molar mass, not a printed value. Where two headings read alike, the source gives them in different places.

Experiments:
[1] = Aqueous solubility, shake flask in PBS buffer; format: physicochemical; conditions: for solubility at 24 h: PBS buffer, aqueous buffer, thermodynamic from solid
Protocol: 5-50 mg of compound was added to 500 μL of PBS buffer at pH 7.4. The pH was adjusted if necessary, using a 1M NaOH solution. The solutions were vortexed for 10 s, sonicated for 2 min and agitated with a horizontal shaker in a closed vial for 24 h. The mixtures were transferred to an Eppendorf tube and centrifuged for 5 min at 16000×g followed by filtration through […] cellulose acetate spin X centrifuge filter (Costar). 200 μL of filtrate was transferred to a new Eppendorf tube and 200 μL of methanol was added and then subsequent dilution was made in 50:50 methanol/PBS buffer water if necessary. After mixing, 50 μL were transferred into a 384 well plate (Coring UV star, 781801) for UV detection at 250-600 nm (Tecan M1000). The assay was carried out with three independent samples of each compound. The concentration of each solution was determined with a calibration curve in 50:50 methanol/PBS buffer water. Absorbance of corresponding methanol PBS blank were recorded and subtracted from the absorbance of calibration curve solutions and from the samples.

GABAA receptor = GABAA receptor binding, competition assay with [3H]-flunitrazepam and rat brain membranes; conditions: for GABAAR binding, % inhibition at 10 μM: Table 3
Protocol: GABAA receptor binding: Rat brain membranes were prepared from frozen tissue that was thawed on ice and homogenized on ice in 10 volumes of cold lysis buffer (50 mM Tris HCl, pH 7.4, containing protease inhibitor cocktail from Roche) using a Polytron homogenizer (6 pulses and 10 seconds per pulse). The homogenate was centrifuged at 1,000×g for 10 min at 4° C. to obtain the supernatant. The supernatant was then centrifuged at 40,000×g for 20 min, and the resulting supernatant decanted and replaced with the same ice-cold lysis buffer. Two or three additional rounds of homogenization-centrifugation were performed to ensure thorough homogenization and also to wash out endogenous ligands. The final pellet was resuspended in the same buffer and homogenized one last time. […] Total binding and nonspecific binding were determined with reference compound clonazepam. […] Scintillation cocktail is then melted onto the microwave-dried filters on a hot plate and radioactivity counted in a Microbeta counter. The data (n=6) were analyzed by nonlinear regression.

in vitro = conditions: PAMPA, pH 7.4
Protocol: (§1) The artificial membrane was prepared by carefully pipetting 15 μL of the 5% (v/v) hexadecane in hexane solution to each of the wells of the donor plate. The plate was placed into a fume hood for 1 h to ensure complete evaporation of the hexane. After the hexane had evaporated, 300 μL of PBS with 5% (v/v) DMSO was added to each of the wells of the acceptor plate. The hexadecane treated donor plate was then placed on top of the acceptor plate taking care that the underside of the membrane is completely in contact with the solution in each of the acceptor wells. […] The lid was placed on the plates and the entire plate sandwich was placed into a closed humid environment. The container was then placed on a reciprocal shaker for agitation at about 100 rpm. The time at the beginning of the incubation was recorded, as this is a thermodynamic-based assay. The incubation was then allowed to continue for 18 h. The donor plate was removed and 50 μL of the acceptor solution was transferred to the UV plate. Drug solutions at the theoretical equilibrium concentration (100 μM) was also prepared and transferred to the UV plate. The absorbance of the solutions in the UV plate was then scanned from 250-600 nm with 1 nm steps and a 5 nm bandwidth. Log Pe was calculated as follows (Equation 1).

HEK293 cells = test: Cytotoxicity, CellTiter-Glo cell viability assay; format: cell-based, human; conditions: for Cytotoxicity LD50: HEK293 cells, CellTiter-Glo, Table 3; for LD50 HEK293: human kidney cells, Table 2
Protocol: Compounds with increased cytotoxicity can be identified using an in vitro cytotoxicity assay. Therefore, human embryonic kidney 293T (HEK293T) cell lines were purchased (ATCC) and cultured in 75 cm2 flasks (CellStar). Cells were grown in DMEM/High Glucose (Hyclone, #SH3024301) media to which non-essential amino acids (Hyclone, #SH30238.01), 10 mM HEPES (Hyclone, #SH302237.01), 5×106 units of penicillin and streptomycin (Hyclone, #SV30010), and 10% of heat inactivated fetal bovine serum (Gibco, #10082147) were added. Cells were harvested using 0.05% Trypsin (Hyclone, #SH3023601). The cell viability assay was evaluated using CellTiter-Glo™ Luminescent Cell Viability Assay Kit (Promega, Madison, WI), which contains luciferase and all its substrate except ATP. The controls for the cytotoxicity assay used were (E)-10-(bromotriphenylphosphoranyl)decyl 4-(4-(tert-butyl)phenyl)-4-oxobut-2-enoate (400 μM in DMSO, positive control) and DMSO (negative control). All luminescence readings were performed on a Tecan Infinite M1000 plate reader. Small volume transfers were performed on the Tecan Freedom EVO liquid handling system with a 100 nL pin tool transfer (V&P Scientific). Serial dilutions were done in 96-well polypropylene plates (Coming, #3365) and assays were conducted in 384-well white optical bottom plates. The assays were carried out in quadruplet in three independent runs. The data were normalized to the controls and if possible analyzed by nonlinear regression (GraphPad Prism).

[2] = parallel artificial membrane permeation assay at pH 7.4
Protocol: as §1

[3] = system: C57/BL6 male mice challenged with MC903; test: Mouse atopic dermatitis model, MC903 challenge, twice daily oral dosing; format: in vivo
Text: An established mouse model of atopic dermatitis (AD) was used to evaluate the efficacy of PI-301 ((R)-8-bromo-6-(2-fluorophenyl)-4-methyl-4H-benzo[f]-imidazo[1,5-a][1,4]diazepine-3-carboxylic acid) in reducing ear thickness, scratching frequency, and inflammatory markers following MC903 challenge (for background on the model see: J Invest Dermatol 138, 2606-2616; Proc Natl Acad Sci USA, 103, 11736-11741; Sci Transl Med, 5, 170ra116; J Invest Dermatol, 138, 1555-1563). The increase of ear thickness is based on the increased diameter of stratum, epidermis, and dermis as determined by standard histological analysis. The thickening of the stratum is based on parakeratosis and hyperkeratosis, the thickening of the epidermis is based on acanthosis and spongiosis and the thickening of the dermis is based on inflammatory infiltration. This reflects increased numbers of neutrophils, mast cells, and, to a lesser extent, eosinophils.
C57/BL6 male mice 8 weeks of age were group housed under a 12 h light/dark cycle. For oral dosing, groups of 8 mice were each given twice daily treatment by voluntary feeding of vehicle (peanut butter) or PI-301 (100 mg/kg in vehicle). Animal weights were recorded daily. Three times per week animals were administered MC903 (1 nmol) on both ears topically. Ear thickness was measured with calipers and photographed.

[4] = system: C57/BL6 mice challenged with MC903; test: Acute treatment in the MC903 mouse model, scratch count; format: in vivo; conditions: single oral gavage on day 19; recording from 40 min after dose; oclacitinib 45 mg/kg, PI-301 100 mg/kg; p<0.05 vs vehicle
Protocol: In another study, the acute treatment effects of oclacitinib (a JAK inhibitor approved for veterinary use) and PI-301 were studied in the MC903 model using C57/BL6 mice. As described previously, MC903 was applied topically on both sides of both ears (1 nmol). On day 19 of the study (D1), drugs or vehicle were administered to individual treatment groups by oral gavage: oclacitinib (45 mg/kg) or PI-301 (100 mg/kg). Mice were video recorded for 60 minutes beginning 40 minutes after drug administration and scratches counted.

[5] = system: IL-6, IL-10, IL-13 and TSLP mRNA in mouse ears; test: RT-PCR of cytokine mRNA in ears of MC903 challenged mice; format: in vivo; conditions: ear mRNA, vs vehicle
Protocol: RT-PCR was used to assay the change in cytokines in MC903 challenged animals treated with PI-301. Left mouse ears stored at −20° C. were thawed, rinsed with water and homogenized in 500 μL RLT buffer (Qiagen, 79216). The liquid was added to a QIAshredder (Qiagen, 79654) and centrifuged at 6000 g for 2 min. 350 μL of the supernatant was combined with 350 μL 70% ethanol and mRNA purified with a RNeasy Mini Kit (Qiagen, 74104). mRNA was analyzed using the Accuris qMAX Green One-Step RT-qPCR Kit (Accuris Instruments) along with primers for IL-4, IL-5, IL-6, IL-10, IL-13, INFγ, and TSLP. Data were acquired using an Eppendorf Mastercycler Pro (45° C. 10 min, 95° C. 2 min, [95° C. 30 s, 55° C. 1 min, 72° C. 2 min]×45) and analyzed by the Delta and Delta-Delta Ct method. Each measurement was carried out in triplicate.

[6] = 10 μM, 3H-flunitrazepam, rat brain extract
[7] = read-out: GABAAR binding (IC50), value in brackets, 3H-flunitrazepam, rat brain extract, Table 3, unit inferred

Row | SMILES | GABAAR binding, % inhibition at 10 μM (GABAA receptor; [6]) | IC50 (GABAA receptor; [7]) [nM] | Cytotoxicity LD50 (HEK293 cells) [µM] | LD50 HEK293 (HEK293 cells) [µM] | Permeability (log Pe (cm/s)) [2] [cm/s] | further results
1 | C#Cc1ccc2c(c1)C(c1ccccc1F)=NC1(CC1)c1c(C(=O)OCC)ncn1-2 [Compound 18] | 56% | 509 | >150 |  |  | solubility at 24 h ([1]; pH 7.2, read-out: Aqueous solubility): 0.053 ± 0.003 mM (≈ 21.2 µg/mL); Papp (in vitro): 25.1 ×10⁻⁶ cm/s
2 | O=C(O)c1ncn2c1C1(CC1)N=C(c1ccccc1F)c1cc(Cl)ccc1-2 [Compound 30, 8-chloro-6-(2-fluorophenyl)spiro[benzo[f]imidazo[1,5-a][1,4]diazepine-4,1′-cyclopropane]-3-carboxylic acid] | 18 (n.d.) % |  | >300 | >400 | −6.6 ± 0.03 | Aqueous solubility (footnote b: mM) ([1]; pH 7.2, cells marked b): 36.2 ± 0.4 ^b mM
3 | O=C(O)c1ncn2c1C1(CC1)N=C(c1ccccc1F)c1ccccc1-2 [Compound 32, 6-(2-fluorophenyl)spiro[benzo[f]imidazo[1,5-a][1,4]diazepine-4,1′-cyclopropane]-3-carboxylic acid] | 74% | 289 | >300 | >400 | −7.0 ± 0.14 | Aqueous solubility (footnote b: mM) ([1]; pH 7.2, cells marked b): 15.1 ± 0.1 ^b mM
4 | CC1(C)N=C(c2ccccc2F)c2cc(Br)ccc2-n2cnc(C(=O)O)c21 [Compound 34, 8-bromo-6-(2-fluorophenyl)-4,4-dimethyl-4H-benzo[f]imidazo[1,5-a][1,4]diazepine-3-carboxylic acid] | 74% | 4050 | >300 | >400 | −7.0 ± 0.22 | solubility at 24 h ([1]; pH 7.2, cells marked b, read-out: Aqueous solubility (footnote b: mM)): 4.4 mM (≈ 1880 µg/mL); % Inhibition at 10 μM (GABAA receptor; 10 μM, [3H]-flunitrazepam, rat brain, Table 1): 74.4%; IC50 (GABAA receptor; [3H]-flunitrazepam, rat brain, Table 1): 4050 nM
5 | CCC1N=C(c2ccccc2F)c2cc(Br)ccc2NC1=O (centres unmarked) [Compound 35, 7-bromo-3-ethyl-5-(2-fluorophenyl)-1,3-dihydro-2H-benzo[e][1,4]diazepin-2-one] | 95% | 134 | >150 |  |  | Aqueous solubility ([1]; pH 7.2): 397 ± 31 µM; Papp (in vitro): 2 ×10⁻⁶ cm/s
6 | C[C@H]1N=C(c2ccccc2F)c2cc(Br)ccc2-n2cnc(C(=O)O)c21 [PI-301, (R)-8-bromo-6-(2-fluorophenyl)-4-methyl-4H-benzo[f]-imidazo[1,5-a][1,4]diazepine-3-carboxylic acid] |  |  |  |  |  | number of scratches ([3]; 100 mg/kg oral twice daily, days 19 and 22, vs vehicle): significantly reduced; increase of ear thickness due to MC903 ([3]; 100 mg/kg oral twice daily, significant on day 10, vs vehicle): reduced the increase of ear thickness; thicknesses of the dermis and epidermis ([3]; histology of H&E stained ear sections, p<0.005 vs vehicle): significant differences; scratches counted over 60 minutes [4]: significant (p<0.05) reduction in scratches; IL-6 induction [5]: reduced induction; IL-10 induction [5]: reduced induction; IL-13 induction [5]: reduced induction; TSLP induction [5]: reduced induction
7 | CNS(=O)(=O)C[C@H]1CC[C@H](N(C)c2ncnc3[nH]ccc23)CC1 [oclacitinib, reference compound] |  |  |  |  |  | scratches counted over 60 minutes [4]: significant (p<0.05) reduction in scratches
